This is an account of results in PubChem BioAssay (NCI).

Test systems include COLO 205 colon; SN12C renal; K-562 leukemia; M14 melanoma; HS 578T breast; SNB-75 CNS; SK-OV-3 ovarian; HT29 colon; 786-0 renal; HCT-15 colon.
Assay in all cases: NCI anticancer screen, dose series, 48 h

Each structure is given as a SMILES string.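 How tested: cells in 96-well plates exposed to compound for 48 hours at five concentrations. GI50 is the concentration that inhibits growth by half. At the TGI there is no net growth.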

Take `CCCCCc1cc(/C=C2/N=C(c3ccc[nH]3)C=C2OC)[nH]c1C`: the TGI with COLO 205 colon was 48.3 nM; in the assay with SN12C renal, 0.844 µM; in the assay with K-562 leukemia, 0.259 µM; with M14 melanoma, < 0.034 µM; in the assay with HS 578T breast, 0.0191 µM; in the assay with SNB-75 CNS, < 0.0124 µM. Moreover, the TGI with SK-OV-3 ovarian was 1.13 µM; with HT29 colon, 0.143 µM; in the assay with 786-0 renal, < 0.0459 µM; in the assay with HCT-15 colon, 1.05 µM.

For the compound `COc1cc(/C=C2\CCC/C(=C\c3cc(CN4CCCC4)c(O)c(OC)c3)C2=O)cc(CN2CCCC2)c1O`, the GI50 with COLO 205 colon was 1190 nM; with SN12C renal it was 4890 nM; in the assay on K-562 leukemia, 3000 nM; in the assay on M14 melanoma, 2900 nM; in the assay with HS 578T breast it was 5.75 µM; in the assay on SNB-75 CNS, 5.02 µM. Besides, the GI50 is 4.58 µM with SK-OV-3 ovarian, 322 nM in the assay with HT29 colon, 3150 nM in the assay on 786-0 renal and 2340 nM in the assay with HCT-15 colon. Moreover, the TGI in the assay on COLO 205 colon came to 2760 nM; in the assay with SN12C renal it was 21.2 µM; in the assay with K-562 leukemia, 16.9 µM; in the assay with M14 melanoma, 8.63 µM; in the assay with HS 578T breast, 50.9 µM; in the assay on SNB-75 CNS it was 47.9 µM. Also, the TGI with SK-OV-3 ovarian is 16.5 µM; with HT29 colon it was 1.78 µM; in the assay with 786-0 renal it was 14.7 µM; in the assay with HCT-15 colon, 7.87 µM.

`CCOc1cc(Cl)c(C(C)NC(=O)c2cccc(OC)c2)cc1OCC` (stereo not given): the GI50 with COLO 205 colon is 7170 nM; in the assay with SN12C renal, 28900 nM; in the assay with K-562 leukemia, 3900 nM; in the assay on M14 melanoma, 5390 nM; in the assay on HS 578T breast, 11.8 µM; in the assay with SNB-75 CNS, 4.79 µM. Further, the GI50 with SK-OV-3 ovarian was 15.6 µM; with HT29 colon it was 4230 nM; with 786-0 renal, 20500 nM; in the assay on HCT-15 colon it was 4060 nM. For the same compound, the TGI in the assay with COLO 205 colon was 47300 nM; in the assay with SN12C renal, > 100 µM; in the assay with K-562 leukemia, > 100 µM; with M14 melanoma, > 100 µM; in the assay on HS 578T breast, > 100 µM; with SNB-75 CNS it was 49.9 µM. The TGI was > 100 µM in the assay with SK-OV-3 ovarian, 44.6 µM in the assay with HT29 colon, > 100 µM with 786-0 renal and > 100 µM in the assay on HCT-15 colon.

Turning to `CCN1CCN(Cc2ccc(NC(=O)Nc3nc(-c4cc(OC)c(OC)c(OC)c4)cs3)cc2C(F)(F)F)CC1`, the GI50 was 1580 nM in the assay on COLO 205 colon; 1450 nM in the assay on SN12C renal; 420 nM in the assay on K-562 leukemia; 1580 nM in the assay on M14 melanoma; 1.65 µM in the assay on HS 578T breast; 1.19 µM in the assay on SNB-75 CNS. The GI50 with SK-OV-3 ovarian was 1.71 µM; in the assay with HT29 colon it was 390 nM; in the assay with 786-0 renal, 1660 nM; with HCT-15 colon, 1410 nM. For the same compound, the TGI in the assay on COLO 205 colon turned out to be 3200 nM; in the assay with SN12C renal, 3.19 µM; in the assay on K-562 leukemia, 1.92 µM; in the assay on M14 melanoma, 3.16 µM; in the assay on HS 578T breast, 5.04 µM; in the assay on SNB-75 CNS, 3.91 µM. Also, the TGI with SK-OV-3 ovarian was 3.85 µM; with HT29 colon, 1.48 µM; with 786-0 renal, 3.15 µM; with HCT-15 colon it was 3.55 µM.

Turning to `CC[C@]12C=CCN3CC[C@@]4(c5ccc(OC)cc5N(C)[C@H]4[C@@](O)(C(=O)OC)[C@@H]1OC(=O)CCC(=O)O[C@H]1CC[C@H]4[C@@H]5CCC6=CC(=O)CC[C@@H]6[C@H]5CC[C@]14C)[C@@H]32`, the GI50 was 941 nM with COLO 205 colon; 1640 nM in the assay on SN12C renal; 1820 nM with K-562 leukemia; 1920 nM in the assay with M14 melanoma; 2.38 µM in the assay on HS 578T breast; 1.08 µM in the assay with SNB-75 CNS. Further, the GI50 in the assay with SK-OV-3 ovarian is 2.04 µM; with HT29 colon, 1600 nM; in the assay on 786-0 renal it was 1990 nM; with HCT-15 colon, 1510 nM. The TGI is 1940 nM in the assay on COLO 205 colon; > 50 µM with SN12C renal; > 50 µM with K-562 leukemia; > 50 µM in the assay with M14 melanoma; > 50 µM in the assay with HS 578T breast; 31.4 µM in the assay with SNB-75 CNS. For the same compound, the TGI in the assay with SK-OV-3 ovarian is > 50 µM; with HT29 colon it was 11.4 µM; in the assay with 786-0 renal, > 50 µM; with HCT-15 colon, > 50 µM.

As to `C=C(C(=O)c1ccccc1)C(NC(C)(C)C)c1ccccc1` (stereo not given), the GI50 in the assay with COLO 205 colon is 1290 nM; in the assay with SN12C renal, 2120 nM; with K-562 leukemia, 1910 nM; in the assay with M14 melanoma, 1870 nM; in the assay on HS 578T breast, 5.56 µM; in the assay with SNB-75 CNS it was 4 µM. Also, the GI50 in the assay on SK-OV-3 ovarian was 3.76 µM; in the assay on HT29 colon it was 1000 nM; in the assay on 786-0 renal, 2060 nM; in the assay with HCT-15 colon, 1880 nM. Further, the TGI in the assay with COLO 205 colon is 2810 nM; in the assay on SN12C renal, 5.38 µM; with K-562 leukemia, 11.5 µM; in the assay on M14 melanoma it was 4.65 µM; in the assay on HS 578T breast, 75.9 µM; with SNB-75 CNS, 16.6 µM. Also, the TGI in the assay on SK-OV-3 ovarian is 20.1 µM; in the assay on HT29 colon, 3.13 µM; with 786-0 renal it was 4.08 µM; with HCT-15 colon, 10 µM.

With `COc1ccc(OC)c(C2=C(c3cn(C)c4ccccc34)C(=O)NC2=O)c1`, the GI50 in the assay with COLO 205 colon is > 25000 nM; in the assay on SN12C renal, > 25000 nM; in the assay with K-562 leukemia, 17100 nM; in the assay on M14 melanoma, > 25000 nM; with HS 578T breast, > 16.9 µM; with SNB-75 CNS, > 25 µM. Besides, the GI50 with SK-OV-3 ovarian was > 25 µM; in the assay with HT29 colon, > 21500 nM; in the assay on 786-0 renal, > 25000 nM; in the assay with HCT-15 colon it was > 23900 nM. The TGI in the assay with COLO 205 colon is > 25000 nM; with SN12C renal, > 25 µM; in the assay with K-562 leukemia, > 25 µM; with M14 melanoma it was > 25 µM; in the assay with HS 578T breast, > 25 µM; in the assay with SNB-75 CNS, > 25 µM. For the same compound, the TGI in the assay with SK-OV-3 ovarian, in the assay on HT29 colon, with 786-0 renal and with HCT-15 colon was > 25 µM in each case.
